# Source: patent US20170275261A1, “1,3,4-THIADIAZOLES HAVING A HERBICIDAL ACTIVITY, THEIR AGRONOMICAL COMPOSITIONS AND RELATIVE USE” (ISAGRO S.P.A., priority 2014, published 2017)
# How the values were obtained:
# Assay type in all cases: in vivo
# Details in all cases: dose 250 g/ha, fifteen days after treatment, damage vs control
# Alopecurus myosuroides [1] = test: Herbicidal activity in pre-emergence
# Protocol: (§1) The herbicidal activity in pre-emergence of the compounds of the invention was evaluated according to the following operating procedures.
# (§2) The plant species of interest (weeds or crops) were seeded in vases having an upper diameter of 10 cm, a height of 10 cm and containing sandy earth. 10 vases were used for each plant species.
# (§3) Water was added to each vase in a suitable quantity for the germination of the seeds. The vases were then divided into two groups, each containing 5 vases for each weed or crop.
# (§4) One day after seeding, the first group of vases was treated with a dispersion having the following composition:
# (§5) Said dispersion was prepared by adding a compound of the present invention at the desired concentration to a hydroacetonic solution containing acetone at 20% by volume and Tween 20 at 0.5% by weight, with respect to the total weight of the dispersion.
# (§6) The desired concentration of a compound of the present invention corresponds to the concentration necessary for allowing the application of an effective dose of said compound equal to 250 g/ha to the plant species of interest.
# (§7) The second group was only treated with a hydroacetonic solution containing acetone at 20% by volume and Tween 20 at 0.5% by weight, and was used as a comparison (control).
# (§8) All the vases were kept under observation in a conditioned environment under the following environmental conditions: • temperature: 24° C.; • relative humidity: 60%; • photo-period: 16 hours; • light intensity: 12,000 lux.
# (§9) Every two days the vases were uniformly watered to ensure a sufficient humidity degree for a good growth of the plants.
# Echinochloa crusgalli [2] = test: Herbicidal activity in pre-emergence
# Protocol: as §1, §2, §3, §4, §5, §6, §7, §8, §9
# Apera spica-venti [3] = test: Herbicidal activity in pre-emergence
# Protocol: as §1, §2, §3, §4, §5, §6, §7, §8, §9
# Eleusine indica [4] = test: Herbicidal activity in pre-emergence
# Protocol: as §1, §2, §3, §4, §5, §6, §7, §8, §9
# Poa Annua [5] = test: Herbicidal activity in pre-emergence
# Protocol: as §1, §2, §3, §4, §5, §6, §7, §8, §9
# Setaria viridis [6] = test: Herbicidal activity in pre-emergence
# Protocol: as §1, §2, §3, §4, §5, §6, §7, §8, §9
# Lolium rigidum [7] = test: Herbicidal activity in pre-emergence
# Protocol: as §1, §2, §3, §4, §5, §6, §7, §8, §9
# Digitaria sanguinalis [8] = test: Herbicidal activity in pre-emergence
# Protocol: as §1, §2, §3, §4, §5, §6, §7, §8, §9
# Alopecurus myosuroides [9] = test: Herbicidal activity in post-emergence
# Protocol: (§10) The herbicidal activity in post-emergence of the compounds of the invention was evaluated according to the following operating procedures.
# as §2, §3, §7, §8, §9
# Echinochloa crusgalli [10] = test: Herbicidal activity in post-emergence
# Protocol: as §10, §2, §3, §7, §8, §9
# Apera spica-venti [11] = test: Herbicidal activity in post-emergence
# Protocol: as §10, §2, §3, §7, §8, §9
# Eleusine indica [12] = test: Herbicidal activity in post-emergence
# Protocol: as §10, §2, §3, §7, §8, §9
# Poa Annua [13] = test: Herbicidal activity in post-emergence
# Protocol: as §10, §2, §3, §7, §8, §9
# Setaria viridis [14] = test: Herbicidal activity in post-emergence
# Protocol: as §10, §2, §3, §7, §8, §9
# Lolium rigidum [15] = test: Herbicidal activity in post-emergence
# Protocol: as §10, §2, §3, §7, §8, §9
# Digitaria sanguinalis [16] = test: Herbicidal activity in post-emergence
# Protocol: as §10, §2, §3, §7, §8, §9
SMILES,Herbicidal activity in pre-emergence (Alopecurus myosuroides [1]),Herbicidal activity in pre-emergence (Echinochloa crusgalli [2]),Herbicidal activity in pre-emergence (Apera spica-venti [3]),Herbicidal activity in pre-emergence (Eleusine indica [4]),Herbicidal activity in pre-emergence (Poa Annua [5]),Herbicidal activity in pre-emergence (Setaria viridis [6]),Herbicidal activity in pre-emergence (Lolium rigidum [7]),Herbicidal activity in pre-emergence (Digitaria sanguinalis [8]),Herbicidal activity in post-emergence (Alopecurus myosuroides [9]),Herbicidal activity in post-emergence (Echinochloa crusgalli [10]),Herbicidal activity in post-emergence (Apera spica-venti [11]),Herbicidal activity in post-emergence (Eleusine indica [12]),Herbicidal activity in post-emergence (Poa Annua [13]),Herbicidal activity in post-emergence (Setaria viridis [14]),Herbicidal activity in post-emergence (Lolium rigidum [15]),Herbicidal activity in post-emergence (Digitaria sanguinalis [16])
"O=S(=O)(c1nnc(C(F)(F)F)s1)c1c(Cl)cccc1Cl [CR1, 2-(2,6-dichlorophenylsulfonyl)-5-(trifluoromethyl)-1,3,4-thiadiazole, reference compound]",0 (0-10% of damage),0 (0-10% of damage),0 (0-10% of damage),0 (0-10% of damage),0 (0-10% of damage),0 (0-10% of damage),0 (0-10% of damage),0 (0-10% of damage),0 (0-10% of damage),0 (0-10% of damage),0 (0-10% of damage),0 (0-10% of damage),0 (0-10% of damage),0 (0-10% of damage),0 (0-10% of damage),0 (0-10% of damage)
"Cc1nnc([S+]([O-])Cc2c(Cl)cccc2Cl)s1 (stereo not shown) [Nr. 1, 2-[(2,6-dichlorobenzyl)-sulfinyl]-5-methyl-1,3,4-thiadiazole]",4 (71-90% of damage),4 (71-90% of damage),5 (91% of damage-death of the plant),5 (91% of damage-death of the plant),5 (91% of damage-death of the plant),4 (71-90% of damage),4 (71-90% of damage),5 (91% of damage-death of the plant),4 (71-90% of damage),4 (71-90% of damage),5 (91% of damage-death of the plant),5 (91% of damage-death of the plant),5 (91% of damage-death of the plant),4 (71-90% of damage),4 (71-90% of damage),5 (91% of damage-death of the plant)
Cc1nnc([S+]([O-])Cc2c(C(F)(F)F)nn(C)c2OCC(F)(F)F)s1 (stereo not shown) [Nr. 9],5 (91% of damage-death of the plant),5 (91% of damage-death of the plant),5 (91% of damage-death of the plant),5 (91% of damage-death of the plant),5 (91% of damage-death of the plant),5 (91% of damage-death of the plant),5 (91% of damage-death of the plant),5 (91% of damage-death of the plant),5 (91% of damage-death of the plant),5 (91% of damage-death of the plant),5 (91% of damage-death of the plant),5 (91% of damage-death of the plant),5 (91% of damage-death of the plant),4 (71-90% of damage),4 (71-90% of damage),5 (91% of damage-death of the plant)
CCc1nnc([S+]([O-])Cc2c(C(F)(F)F)nn(C)c2OCC(F)(F)F)s1 (stereo not shown) [Nr. 121],5 (91% of damage-death of the plant),5 (91% of damage-death of the plant),5 (91% of damage-death of the plant),5 (91% of damage-death of the plant),5 (91% of damage-death of the plant),5 (91% of damage-death of the plant),5 (91% of damage-death of the plant),5 (91% of damage-death of the plant),4 (71-90% of damage),5 (91% of damage-death of the plant),5 (91% of damage-death of the plant),5 (91% of damage-death of the plant),5 (91% of damage-death of the plant),4 (71-90% of damage),4 (71-90% of damage),5 (91% of damage-death of the plant)
